Measured values taken from PubChem BioAssay (NCI).
Where “and” joins values, the source holds several entries; their conditions need not be identical. Equal values may be shown once.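 Briefly, cells in 96-well plates were exposed to five compound concentrations for 48 h, and endpoints were estimated by linear interpolation. Abbreviation: GI50, concentration required for 50% inhibition of growth. TGI marks complete inhibition of growth.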

Key:
Experiment in all cases: NCI-60 cell line screen, 48 h
ACHN renal = test system: ACHN renal
MOLT-4 leukemia = test system: MOLT-4 leukemia
MDA-MB-435 = test system: MDA-MB-435
OVCAR-3 ovarian = test system: OVCAR-3 ovarian
OVCAR-4 ovarian = test system: OVCAR-4 ovarian
KM12 colon = test system: KM12 colon
MDA-MB-231 breast = test system: MDA-MB-231 breast
HOP-92 NSCLC = test system: HOP-92 NSCLC
SF-295 CNS = test system: SF-295 CNS
HCT-15 colon = test system: HCT-15 colon
UACC-257 melanoma = test system: UACC-257 melanoma
NCI-H226 lung = test system: NCI-H226 lung
RXF 393 renal = test system: RXF 393 renal
A549 NSCLC = test system: A549 NSCLC
DU-145 prostate = test system: DU-145 prostate
786-0 renal = test system: 786-0 renal

Compound	TGI (ACHN renal)	TGI (MOLT-4 leukemia)	TGI (MDA-MB-435)	TGI (OVCAR-3 ovarian)	TGI (OVCAR-4 ovarian)	TGI (KM12 colon)	TGI (MDA-MB-231 breast)	TGI (HOP-92 NSCLC)	TGI (SF-295 CNS)	TGI (HCT-15 colon)	TGI (UACC-257 melanoma)	TGI (NCI-H226 lung)	TGI (RXF 393 renal)	TGI (A549 NSCLC)	TGI (DU-145 prostate)	TGI (786-0 renal)	GI50 (MOLT-4 leukemia)	GI50 (MDA-MB-435)	GI50 (OVCAR-3 ovarian)	GI50 (SF-295 CNS)
COC(=O)/C=C/C1(O)C=CC(=O)C=C1	5.25 µM	> 24.6 µM	> 39.2 µM	4.93 µM	15.6 µM	5.61 µM	5.37 µM	> 32.1 µM	38.3 µM	> 31.9 µM	13.6 µM	47.1 µM	> 25.1 µM	> 47.8 µM	9.57 µM	5.36 µM	–	–	–	–
Cc1ccc2nc(C=Nc3ccc(Cl)cc3)cc(C)c2c1	> 96.4 µM	> 53.6 µM	24.1 µM	32.2 µM	> 83.1 µM	24.7 µM	27.3 µM	81 µM	19.3 µM	0.4 µM	36.5 µM	72.7 µM	62.3 µM	> 100 µM	> 100 µM	35.3 µM	–	–	–	–
O=C(NCCNCCCNC(=O)c1cc(-c2ccccc2)nc2ccccc12)c1cccc(OCc2ccccc2)c1OCc1ccccc1	3.11 µM	3.51 µM	3.04 µM	3.36 µM	3.03 µM	3.37 µM	3.21 µM	3.23 µM	3.03 µM	3.25 µM	3.28 µM	3.35 µM	–	3.15 µM	3.26 µM	3.09 µM	–	–	–	–
CSc1ncc2c(n1)sc1c(=O)n(-c3ccccc3)cnc12	> 100 µM	> 100 µM	> 100 µM	> 100 µM	> 100 µM	> 100 µM	> 100 µM	> 100 µM	> 100 µM	> 100 µM	> 100 µM	> 100 µM	> 100 µM	> 100 µM	> 100 µM	> 100 µM	–	–	–	–
O=C(C/C(=N/O)c1cc(-c2ccccc2)no1)c1ccccc1	> 100 µM	> 100 µM	> 100 µM	41.9 µM	65.8 µM	> 100 µM	46.1 µM	58 µM	> 100 µM	> 100 µM	> 100 µM	56.7 µM	41.2 µM	> 100 µM	> 100 µM	42.3 µM	–	–	–	–
C=C(CN1CC2C[C@](C(=O)OC)(c3cc4ccccc4[nH]3)C1C(OC)C2OC)S(=O)(=O)c1ccccc1 (stereo not given in full)	9.24 µM	2.83 µM	7.21 µM	10.2 µM	12.5 µM	10.7 µM	10.9 µM	8.33 µM	14.5 µM	8.61 µM	8.5 µM	18.8 µM	10.1 µM	12.6 µM	14.1 µM	10 µM	–	–	–	–
CCOC(=O)c1c2c(c(O)c3ccccc3c(O)n(Cc3ccccc3)c1C)C(=O)C=CC2=O	> 100 µM	> 100 µM	> 100 µM	> 100 µM	> 100 µM	> 100 µM	> 100 µM	> 100 µM	> 100 µM	> 100 µM	> 100 µM	> 100 µM	75.9 µM	> 100 µM	> 100 µM	> 100 µM	–	–	–	–
COc1ccc(/C=C2\CCC/C(=C\c3ccc(O)c(CN4CCCCC4)c3)C2=O)cc1	> 82.7 µM	40.7 µM	39.6 µM	46.3 µM	> 79.5 µM	–	35.2 µM	51.6 µM	36.4 µM	36 µM	40.4 µM	45.8 µM	41 µM	52.8 µM	36.9 µM	19.3 µM	–	–	–	–
CCN(CC)CCNc1ccc2nnn3c4ccc(O)cc4c(=O)c1c23	14.2 µM	4.76 µM	17.4 µM	22.7 µM	12.6 µM	12.8 µM	18.2 µM	18.2 µM	17.8 µM	17.6 µM	24.9 µM	14.7 µM	5.96 µM	13.3 µM	27.6 µM	15.6 µM	–	–	–	–
O=C(O)CC(Sc1ccccc1)c1ccccc1 (stereo not given)	> 100 µM	> 100 µM	> 100 µM	> 100 µM	> 100 µM	> 100 µM	> 100 µM	> 100 µM	> 100 µM	> 100 µM	–	> 100 µM	> 100 µM	> 100 µM	> 100 µM	> 100 µM	–	–	–	–
c1ccc2c(c1)CCc1[nH]c3c(c1-2)-c1ccccc1CC3	> 100 µM	> 100 µM	> 100 µM	> 100 µM	> 100 µM	> 100 µM	> 100 µM	> 100 µM	> 100 µM	> 100 µM	> 100 µM	> 100 µM	> 100 µM	> 100 µM	> 100 µM	> 100 µM	–	–	–	–
CN1CCC2(CC1)C(=NC1CCCCC1)NC(=S)N2c1ccccc1	> 100 µM	> 100 µM	> 100 µM	–	> 100 µM	> 100 µM	> 100 µM	> 100 µM	> 100 µM	> 100 µM	> 100 µM	> 100 µM	> 100 µM	> 100 µM	> 100 µM	> 100 µM	–	–	–	–
CCOP(=O)(OCC)/C(C#N)=C/c1cnc[nH]1	> 100 µM	> 100 µM	> 100 µM	> 100 µM	> 100 µM	> 100 µM	> 100 µM	> 100 µM	> 100 µM	> 100 µM	> 100 µM	> 100 µM	> 100 µM	> 100 µM	> 100 µM	> 100 µM	–	–	–	–
COc1ccc2cc(-c3nc(N)nc(N4N=C(C)CC4(C)C)n3)c(=N)oc2c1	31.8 µM	33.7 µM	42.1 µM	28.5 µM	50.5 µM	30.6 µM	44.8 µM	60.5 µM	33.2 µM	32 µM	95.7 µM	40.6 µM	58.9 µM	> 100 µM	32.6 µM	36.3 µM	–	–	–	–
CSc1ccc(/C=C2\N=C(c3ccccc3)N(c3nc4cc(C)c(C)cc4s3)C2=O)cc1	58.6 µM	> 100 µM	37.7 µM	77.4 µM	> 100 µM	> 100 µM	> 100 µM	73.3 µM	> 100 µM	> 100 µM	> 100 µM	–	62.3 µM	89.7 µM	> 100 µM	61.6 µM	–	–	–	–
COC(=O)C1=C(C)C=C(N2CCOCC2)C(C(=O)OC)C1c1ccccc1 (stereo not given)	> 10 µM	> 10 µM	> 10 µM	> 10 µM	> 10 µM	> 10 µM	> 10 µM	> 10 µM	> 10 µM	> 10 µM	> 10 µM	> 10 µM	> 10 µM	> 10 µM	> 10 µM	> 10 µM	–	–	–	–
CCOC(=O)C(NC(=O)c1ccccc1)(Nc1ccc(Cl)cc1C(F)(F)F)C(F)(F)F (stereo not given)	27.4 µM	> 22.2 µM	3.24 µM	18.7 µM	> 100 µM	5.17 µM	77.2 µM	50.7 µM	> 69.8 µM	> 50.9 µM	> 100 µM	> 100 µM	24.7 µM	> 100 µM	> 100 µM	> 100 µM	–	–	–	–
CCOC(=O)c1[nH]cc(C)c1-c1ccc2c(-c3ccccc3)nc3ccccc3n12	15.5 µM	9.25 µM	11.2 µM	18.5 µM	16.1 µM	13.3 µM	12.8 µM	14 µM	13.6 µM	13.7 µM	24.7 µM	20.1 µM	7.22 µM	18.5 µM	13.4 µM	12.8 µM	–	–	–	–
CN1CCN(c2ccc3nc(-c4ccc5nc(-c6ccc(O)cc6)[nH]c5c4)[nH]c3c2)CC1	666 µM	482 µM	217 µM	43.1 µM	609 µM	678 µM	639 µM	169 µM	678 µM	736 µM	188 µM	792 µM	529 µM	756 µM	526 µM	941 µM	37.2 µM and 39.4 µM	41.7 µM	13.5 µM and 59.5 µM and 10.1 µM	380 µM
COC1OC(COC(=O)c2cc(O)c(O)c(O)c2)C(OC(=O)c2cc(O)c(O)c(O)c2)C(OC(=O)c2cc(O)c(O)c(O)c2)C1OC(=O)c1cc(O)c(O)c(O)c1 (stereo not given)	> 100 µM	70.6 µM	25.7 µM	77.7 µM	> 100 µM	> 100 µM	> 100 µM	> 100 µM	> 100 µM	> 100 µM	> 100 µM	66.8 µM	> 100 µM	> 100 µM	> 100 µM	26.4 µM	–	–	–	–
COc1ccc2[nH]c3c(C)c4ccnc(NCCCN(C)CCCNc5ccc6ncn7c8ccccc8c(=O)c5c67)c4c(C)c3c2c1	0.918 µM	3.13 µM	4.45 µM	6.56 µM	6.94 µM	4.65 µM	1.2 µM	19.2 µM	1.85 µM	3.45 µM	2.9 µM	2.54 µM	0.623 µM	1.48 µM	4.14 µM	–	–	–	–	–
O=C(CCCl)NNC1=NCCCN1	> 100 µM	> 100 µM	> 100 µM	> 100 µM	> 100 µM	> 100 µM	> 100 µM	> 100 µM	> 100 µM	> 100 µM	> 100 µM	> 100 µM	> 100 µM	> 100 µM	> 100 µM	> 100 µM	–	–	–	–
CN(c1cn(C2CC[C@@H](CO)O2)c(=O)[nH]c1=O)C1CCCCC1 (stereo not given in full)	> 100 µM	> 100 µM	> 100 µM	> 100 µM	> 100 µM	> 100 µM	> 100 µM	> 100 µM	> 100 µM	> 100 µM	–	> 100 µM	> 100 µM	> 100 µM	> 100 µM	> 100 µM	–	–	–	–
O=C(O)CCCc1ccc2ccccc2c1	> 100 µM	> 100 µM	> 100 µM	> 100 µM	> 100 µM	> 100 µM	> 100 µM	> 100 µM	> 100 µM	> 100 µM	> 100 µM	–	> 100 µM	> 100 µM	> 100 µM	> 100 µM	–	–	–	–
Nc1nc2c(ncn2Cc2ccccc2CO)c(=O)[nH]1	> 100 µM	> 100 µM	> 100 µM	> 100 µM	> 100 µM	> 100 µM	> 100 µM	> 100 µM	> 100 µM	> 100 µM	> 100 µM	> 100 µM	–	> 100 µM	> 100 µM	> 100 µM	–	–	–	–
CC(=O)OC12c3ccccc3-c3ccccc3C1C1C(=O)OC(=O)C12 (stereo not given)	> 10 µM	> 10 µM	> 10 µM	> 10 µM	> 10 µM	> 10 µM	> 10 µM	> 10 µM	> 10 µM	> 10 µM	> 10 µM	> 10 µM	> 10 µM	–	> 10 µM	> 10 µM	–	–	–	–
C=CCOC(=O)C1=C(CCC[C@@H](C)O[Si](C)(C)C(C)(C)C)N=C(N)N2[C@H](CCO)CC[C@@H]12	40.1 µM	24.9 µM	27.8 µM	23.5 µM	23.2 µM	24.1 µM	29.6 µM	27.2 µM	25.2 µM	32.5 µM	38.7 µM	33.9 µM	–	22 µM	28.6 µM	33.8 µM	–	–	–	–
COc1ccc(C2C3CCc4ccccc4C3=NN2S(=O)(=O)c2ccc(/C=C/C(=O)O)cc2)cc1 (stereo not given)	14.1 µM	25.3 µM	2.69 µM	86.3 µM	54.1 µM	43.4 µM	> 100 µM	> 100 µM	9.08 µM	0.717 µM	–	74.7 µM	31.4 µM	54.4 µM	> 100 µM	15.9 µM	–	–	–	–
Cc1nnc(N)nc1/C=C/c1c(O)ccc2ccccc12	43.7 µM	> 100 µM	79.5 µM	–	61.1 µM	> 100 µM	> 100 µM	86.9 µM	56.9 µM	44 µM	> 100 µM	44.5 µM	36.2 µM	> 100 µM	> 100 µM	> 100 µM	–	–	–	–
